# Reference: US20260008818A1, “CYCLIC PEPTIDE OR SALT THEREOF, AND USES THEREOF” (FUJIFILM Corporation, priority 2023, published 2026)
# Bridge positions count the residues as written; N and C are the ends. Ends that are not written are not given here. COCH2 = acetyl group that carries the bridge
# Tested on: Recombinant Human FGFR1 alpha (IIIc) Fc Chimera Protein
# Assay: Binding affinity of enzymatically synthesized cyclic peptide to FGFR by ELISA
# Settings: luminescence signal at reaction concentration 10 nmol/L, SEQ ID NO: 39 standardized to 1, enzyme synthesis product
# Method: The binding affinity of the cyclic peptide to FGFR was evaluated using an ELISA method.
# The binding affinity of the enzymatically synthesized cyclic peptide to FGFR was measured by evaluating the amount of the cyclic peptide bound to FGFR by ELISA.
# First, 5 ng of Recombinant Human FGFR1 alpha (IIIc) Fc Chimera Protein CF (R&D systems, 658-FR-050) was immobilized in each well of a 96-well plate, and blocked with Pierce Protein-Free (PBS) Blocking Buffer (Thermo, 37572), and a cyclic peptide diluted with Can Get Signal Immunoreaction Enhancer Solution I (TOYOBO, NKB-101) was then added and reacted at room temperature for 3 hours. After washing with 0.05% Tween 20-containing phosphate buffered saline (PBS), an anti-Myc antibody (Cell Signaling, 14038S) diluted with Can Get Signal Immunoreaction Enhancer Solution II (TOYOBO, NKB-101) was added and reacted at room temperature for 2 hours. After washing with 0.05% Tween 20-containing PBS, SuperSignal ELISA Femto Substrate (Thermo, 37075) was added, and the luminescence amount was measured. The dose-response relationship was calculated from using the difference between the luminescence amount in the well in which FGFR was immobilized and the luminescence amount in the well in which FGFR was not immobilized, and the concentration of the cyclic peptide at the time of reaction, and the binding affinity to FGFR was evaluated according to the following evaluation criteria. The evaluation result preferably satisfies the evaluation criteria A, B, or C.
# In a case where a value of a luminescence signal emitted by the cyclic peptide set forth in SEQ ID NO: 39 at a reaction concentration of 10 nmol/L is standardized to 1, evaluation criteria of the luminescence signal value emitted by the cyclic peptide at a reaction concentration of 10 nmol/L is as follows. • A: 0.7 or more • B: 0.5 or more and less than 0.7 • C: 0.1 or more and less than 0.5 • D: less than 0.1.
row,Substance,Evaluation result of binding affinity to FGFR
1,139 (HCSYEQLQFHGHEAPFRVK(COCH2)V; thioether 2-19 (inferred)) [compound 139],B (0.5 or more and less than 0.7)
2,141 (HCSYEHLQFHGHEAPFRVK(COCH2)V; thioether 2-19 (inferred)) [compound 141],C (0.1 or more and less than 0.5)
3,142 (HCSYERFQFHGHEAPFRVK(COCH2)V; thioether 2-19 (inferred)) [compound 142],C (0.1 or more and less than 0.5)
4,146 (HCSYERLLFHGHEAPFRVK(COCH2)V; thioether 2-19 (inferred)) [compound 146],A (0.7 or more)
5,149 (HCSYERLFFHGHEAPFRVK(COCH2)V; thioether 2-19 (inferred)) [compound 149],A (0.7 or more)
6,150 (HCSYERLYFHGHEAPFRVK(COCH2)V; thioether 2-19 (inferred)) [compound 150],A (0.7 or more)
7,153 (HCSYERLSFHGHEAPFRVK(COCH2)V; thioether 2-19 (inferred)) [compound 153],A (0.7 or more)
8,165 (HCSYERLQFIGHEAPFRVK(COCH2)V; thioether 2-19 (inferred)) [compound 165],A (0.7 or more)
9,169 (HCSYERLQFWGHEAPFRVK(COCH2)V; thioether 2-19 (inferred)) [compound 169],A (0.7 or more)
10,170 (HCSYERLQFNGHEAPFRVK(COCH2)V; thioether 2-19 (inferred)) [compound 170],B (0.5 or more and less than 0.7)
11,172 (HCSYERLQFSGHEAPFRVK(COCH2)V; thioether 2-19 (inferred)) [compound 172],B (0.5 or more and less than 0.7)
12,173 (HCSYERLQFTGHEAPFRVK(COCH2)V; thioether 2-19 (inferred)) [compound 173],C (0.1 or more and less than 0.5)
13,174 (HCSYERLQFEGHEAPFRVK(COCH2)V; thioether 2-19 (inferred)) [compound 174],B (0.5 or more and less than 0.7)
14,176 (HCSYERLQFHGHGAPFRVK(COCH2)V; thioether 2-19 (inferred)) [compound 176],C (0.1 or more and less than 0.5)
15,177 (HCSYERLQFHGHPAPFRVK(COCH2)V; thioether 2-19 (inferred)) [compound 177],A (0.7 or more)
16,179 (HCSYERLQFHGHIAPFRVK(COCH2)V; thioether 2-19 (inferred)) [compound 179],A (0.7 or more)
17,180 (HCSYERLQFHGHVAPFRVK(COCH2)V; thioether 2-19 via Ac) [compound 180],A (0.7 or more)
18,182 (HCSYERLQFHGHYAPFRVK(COCH2)V; thioether 2-19 via Ac) [compound 182],A (0.7 or more)
19,184 (HCSYERLQFHGHNAPFRVK(COCH2)V; thioether 2-19 via Ac) [compound 184],A (0.7 or more)
20,185 (HCSYERLQFHGHQAPFRVK(COCH2)V; thioether 2-19 via Ac) [compound 185],A (0.7 or more)
21,186 (HCSYERLQFHGHSAPFRVK(COCH2)V; thioether 2-19 via Ac) [compound 186],A (0.7 or more)
22,187 (HCSYERLQFHGHTAPFRVK(COCH2)V; thioether 2-19 via Ac) [compound 187],A (0.7 or more)
23,189 (HCSYERLQFHGHRAPFRVK(COCH2)V; thioether 2-19 via Ac) [compound 189],A (0.7 or more)

# Further lines, results first:
row,Evaluation result of binding affinity to FGFR,Substance
1,A (0.7 or more),138 (HCSYEVLQFHGHEAPFRVK(COCH2)V; thioether 2-19 (inferred)) [compound 138]
2,C (0.1 or more and less than 0.5),140 (HCSYETLQFHGHEAPFRVK(COCH2)V; thioether 2-19 (inferred)) [compound 140]
3,B (0.5 or more and less than 0.7),143 (HCSYERYQFHGHEAPFRVK(COCH2)V; thioether 2-19 (inferred)) [compound 143]
4,A (0.7 or more),144 (HCSYERHQFHGHEAPFRVK(COCH2)V; thioether 2-19 (inferred)) [compound 144]
5,C (0.1 or more and less than 0.5),145 (HCSYERLGFHGHEAPFRVK(COCH2)V; thioether 2-19 (inferred)) [compound 145]
6,A (0.7 or more),147 (HCSYERLIFHGHEAPFRVK(COCH2)V; thioether 2-19 (inferred)) [compound 147]
7,A (0.7 or more),148 (HCSYERLVFHGHEAPFRVK(COCH2)V; thioether 2-19 (inferred)) [compound 148]
8,A (0.7 or more),151 (HCSYERLWFHGHEAPFRVK(COCH2)V; thioether 2-19 (inferred)) [compound 151]
9,A (0.7 or more),152 (HCSYERLNFHGHEAPFRVK(COCH2)V; thioether 2-19 (inferred)) [compound 152]
10,A (0.7 or more),154 (HCSYERLTFHGHEAPFRVK(COCH2)V; thioether 2-19 (inferred)) [compound 154]
11,A (0.7 or more),155 (HCSYERLEFHGHEAPFRVK(COCH2)V; thioether 2-19 (inferred)) [compound 155]
12,A (0.7 or more),156 (HCSYERLRFHGHEAPFRVK(COCH2)V; thioether 2-19 (inferred)) [compound 156]
13,A (0.7 or more),157 (HCSYERLHFHGHEAPFRVK(COCH2)V; thioether 2-19 (inferred)) [compound 157]
14,B (0.5 or more and less than 0.7),158 (HCSYERLQLHGHEAPFRVK(COCH2)V; thioether 2-19 (inferred)) [compound 158]
15,C (0.1 or more and less than 0.5),159 (HCSYERLQIHGHEAPFRVK(COCH2)V; thioether 2-19 (inferred)) [compound 159]
16,C (0.1 or more and less than 0.5),160 (HCSYERLQVHGHEAPFRVK(COCH2)V; thioether 2-19 (inferred)) [compound 160]
17,C (0.1 or more and less than 0.5),161 (HCSYERLQYHGHEAPFRVK(COCH2)V; thioether 2-19 (inferred)) [compound 161]
18,B (0.5 or more and less than 0.7),162 (HCSYERLQWHGHEAPFRVK(COCH2)V; thioether 2-19 (inferred)) [compound 162]
19,C (0.1 or more and less than 0.5),163 (HCSYERLQFGGHEAPFRVK(COCH2)V; thioether 2-19 (inferred)) [compound 163]
20,A (0.7 or more),164 (HCSYERLQFLGHEAPFRVK(COCH2)V; thioether 2-19 (inferred)) [compound 164]
21,A (0.7 or more),166 (HCSYERLQFVGHEAPFRVK(COCH2)V; thioether 2-19 (inferred)) [compound 166]
22,A (0.7 or more),167 (HCSYERLQFFGHEAPFRVK(COCH2)V; thioether 2-19 (inferred)) [compound 167]
23,A (0.7 or more),168 (HCSYERLQFYGHEAPFRVK(COCH2)V; thioether 2-19 (inferred)) [compound 168]
24,A (0.7 or more),171 (HCSYERLQFQGHEAPFRVK(COCH2)V; thioether 2-19 (inferred)) [compound 171]
25,A (0.7 or more),175 (HCSYERLQFRGHEAPFRVK(COCH2)V; thioether 2-19 (inferred)) [compound 175]
26,A (0.7 or more),178 (HCSYERLQFHGHLAPFRVK(COCH2)V; thioether 2-19 (inferred)) [compound 178]
27,A (0.7 or more),181 (HCSYERLQFHGHFAPFRVK(COCH2)V; thioether 2-19 via Ac) [compound 181]
28,A (0.7 or more),183 (HCSYERLQFHGHWAPFRVK(COCH2)V; thioether 2-19 via Ac) [compound 183]
29,A (0.7 or more),188 (HCSYERLQFHGHDAPFRVK(COCH2)V; thioether 2-19 via Ac) [compound 188]
